Reference: US20110118224A1, “USE OF STEROID SULFATASE INHIBITORS FOR THE TREATMENT OF PRETERM LABOR” (priority 2008, published 2011)

Experiments:
[1] = Placental barrier crossing ability measurement (whole body autoradiography of 14C-labeled compound); assay type: in vivo, rat; conditions: for Passage of the placental barrier: compound and/or its main metabolite
Method: The ability of a steroid sulfatase inhibitor according to the invention to cross the placental barrier can be investigated as follows. This assay was performed with a steroid sulfatase inhibitor according to the invention (Estradiol Sulfamate or E2MATE) which is used for the treatment of symptoms related to estrogen deficiency in postmenopausal or hysterectomized women.
Six female albino rats received a single intravenous bolus dose of 0.47 mg ^14C-labeled Estradiol Sulfamate per kg. Six female albino, 3 pregnant albino and 4 female pigmented rats received 1 mg ^14C-labeled Estradiol Sulfamate per kg as an intragastic dose. […] Animals were deeply frozen in a mixture of hexane and dry ice and embedded into a block of carboxymethyl cellulose, which was frozen and stored at approximately −20° C. External standards were used for semi-quantitative evaluation of radioluminograms and were prepared by spiking an erythrocyte concentrate with different concentrations of ^14C-radioactivity. Pores were drilled into a separate block of carboxymethyl cellulose, filled with external standards and frozen at approximately −20° C. Whole body sagittal sections of 50 μm thickness were taken through each animal and the external standard block using a Leica CM 3600 cryomicrotome. After freeze drying of the sections in the cryostat for a minimum time of 48 hours, they were exposed to an Imaging Plate (IP) for a period of 4 to 24 hours and the IP was scanned using the bioimaging analyzer BAS 2000. For evaluation, the external standard samples were related to a colored scale using the software AIDA (Advanced Image Data Analysis, version 3.10, Raytest, Germany), each color representing a specific radioactive concentration (MBq). The different tissues were compared semi-quantitatively to the external standards and concentration ranges were determined.

[2] = tested on: time-mated female Sprague-Dawley rats; test: Developmental toxicity in the rat; assay type: in vivo
Description: The safety of a use of a steroid sulfatase inhibitor according to the invention, measured by no or minor effects induced on foetus development during gestation in pregnant rat can be investigated as follows.
The effects of a steroid sulfatase inhibitor according to the invention (Estradiol Sulfamate or E2MATE) on the embryonic and foetal development of the rat was investigated when administered during the period of organogenesis (Days 6 to 17 of gestation). Four groups each of 20 time-mated female Sprague-Dawley rats were dosed with 0 (Control), 7.5, 22 or 60 μg/kg/day of Estardiol sulfamate from Day 6 to Day 17 of gestation. A further group of twenty females was dosed with ethinylestradiol at 80 μg/kg/day and acted as a positive control.
Clinical observations, bodyweight and food consumption were recorded and the progress and outcome of pregnancy was assessed on Day 20 of gestation. Foetal pathology to assess abnormalities and variations was carried out on all foetuses.

[3] = tested on: time-mated female New Zealand White rabbits; test: Developmental toxicity in the rabbit; assay type: in vivo
Description: The safety of a use of a steroid sulfatase inhibitor according to the invention, measured by no or minor effects induced on foetus development during gestation in pregnant rabbit can be investigated as follows.
The effects of a steroid sulfatase inhibitor according to the invention (Estradiol Sulfamate or E2MATE) on the embryonic and foetal development of the rabbit when administered during the period of organogenesis (Days 6 to 18 of gestation). Four groups each of between 20 to 25 time-mated female New Zealand White rabbits were dosed with 0 (Control), 5, 15 or 50 μg/kg/day from Day 6 to Day 18 of gestation. A further group of twenty females was administered with ethinylestradiol at 50 μg/kg/day and acted as a positive control. Clinical observations, bodyweight and food consumption were recorded and the progress and outcome of pregnancy was assessed on Day 28 of gestation. Foetal pathology to assess abnormalities and variations was carried out on all foetuses

[4] = 1 h post-dose, 1 mg/kg i.g., pregnant albino rats, semi-quantitative
[5] = dosed Day 6 to Day 17 of gestation
[6] = dosed Day 6 to Day 18 of gestation

Row | Compound | Distribution of radiolabel in pregnant albino animals compared to female albino rats ([1]; 1 mg/kg 14C-labeled, intragastric, pregnant (18 day p.c.) albino rats) | 14C-concentrations in pregnant animals versus non-pregnant animals ([1]; 1 h post-dose, 1 mg/kg i.g.) | 14C-radiolabel concentration in foetal liver [1, 4] | 14C-radiolabel concentration in foetal membranes [1, 4] | 14C-radiolabel concentration in mammary gland [1, 4] | 14C-radiolabel concentration in placenta [1, 4] | 14C-radiolabel concentration in the foetus [1, 4] | 14C-concentrations (foetus, foetal liver, placenta, mammary gland, foetal membranes) ([1]; 7 h and 1 day post dose, 1 mg/kg i.g., pregnant albino rats) | general radiolabel concentration in pregnant animals versus non-pregnant animals ([1]; after 7 h, 1 mg/kg i.g.) | Passage of the placental barrier ([1]; pregnant albino rats) | Effects in foetuses / teratogenic action ([2]; at about 22 μg/kg/day) | No Observed Adverse Effect Level (NOAEL) for foetal development [2, 5] | No Observed Effect Level (NOEL) for female toxicity [2, 5] | Observed female toxicity at the higher doses ([2]; doses above 7.5 μg/kg/day (22 or 60 μg/kg/day)) | No Observed Adverse Effect Level (NOAEL) for embryofoetal development [3, 6] | No Observed Adverse Effect Level for maternal toxicity during the period of organogenesis [3, 6] | Dosage-related maternal effects at higher doses ([3]; doses above 5 μg/kg/day (15 or 50 μg/kg/day)) | Tolerance by the females compared with ethinylestradiol (positive control) ([3]; ethinylestradiol at 50 μg/kg/day)
1 | C[C@]12CC[C@@H]3c4ccc(OS(N)(=O)=O)cc4CC[C@H]3[C@@H]1CC[C@@H]2O [Estradiol Sulfamate] | similar | slightly higher | high range | medium | medium | high range | high range | between the higher low and the lower high range | lower | passed the placental barrier reversibly | some minor effects in foetuses but no teratogenic action | about 22 μg/kg/day | about 7.5 μg/kg/day | limited to reduced food consumption and an associated reduction in bodyweight gain during gestation | about 15 μg/kg/day | about 5 μg/kg/day | limited to lower bodyweight gain and food consumption | generally better tolerated
2 | CC12CCC3c4ccc(OS(N)(=O)=O)cc4CCC3C1CCC2=O (stereo not shown) [Estrone Sulfamate] | – | – | – | – | – | – | – | – | – | passed the placental barrier reversibly | – | – | – | – | – | – | – | –
